{"source": "patent US12364709B2", "about": "“Bioavailable poly amines” (AMINEX THERAPEUTICS, INC., priority 2016, dated 2025)", "experiment": "Pharmacokinetic analysis of AMXT 1501 salt forms, single oral tablet dose", "type": "in vivo, beagle dogs", "conditions": "for Cmax / Tmax / half-life / AUC(0-t): beagle, dog, plasma, po", "from_the_text": "Following dose administration all the animals had serial blood collections. Table 18 provides pharmacokinetic data obtained using the various salt forms of AMXT 1501 following single PO dosing to dogs. In Table 18, Group 1 received the free base form of AMXT 1501, Group 2 received the dicholate salt of AMXT 1501, Group 3 received the phosphate salt form of AMXT 1501, and Group 4 received the dicaprate salt form of AMXT 1501. […] In Table 18, SD refers to standard deviation and CV % refers to coefficient of variability.", "key": {"[1]": {"conditions": "single PO dose 16.0 mg/kg (2 x 80 mg tablets), plasma AMXT 1501, 16 mg/kg"}, "[2]": {"conditions": "single PO dose 16.0 mg/kg, plasma AMXT 1501, 16 mg/kg"}, "[3]": {"conditions": "single PO dose 16.0 mg/kg, t=24 hours, plasma AMXT 1501, 16 mg/kg"}}, "note": "Like-named read-outs stand apart in the source and are kept apart here.", "data": [{"compound": "CCCCCCCCCCCCCCCC(=O)NCCCC[C@@H](N)C(=O)NCCCNCCCCNCCCN", "note": "[AMXT 1501 dicaprate]", "values": [{"measurement": "Cmax", "setting": "16 mg/kg, single PO dose 16.0 mg/kg (2 x 80 mg tablets), plasma AMXT 1501, read-out: Cmax Mean", "result": 276, "unit": "ng/mL"}, {"measurement": "Cmax", "setting": "16 mg/kg, single PO dose 16.0 mg/kg (2 x 80 mg tablets), plasma AMXT 1501, read-out: Cmax Median", "result": 278, "unit": "ng/mL"}, {"measurement": "Tmax", "setting": "16 mg/kg, single PO dose 16.0 mg/kg (2 x 80 mg tablets), plasma AMXT 1501, read-out: Tmax Mean", "result": 6, "unit": "h"}, {"measurement": "Tmax", "setting": "16 mg/kg, single PO dose 16.0 mg/kg (2 x 80 mg tablets), plasma AMXT 1501, read-out: Tmax Median", "result": 6, "unit": "h"}, {"measurement": "half-life", "setting": "16 mg/kg, single PO dose 16.0 mg/kg, plasma AMXT 1501, read-out: t1/2 Mean (converted)", "result": 14, "unit": "h"}, {"measurement": "half-life", "setting": "16 mg/kg, single PO dose 16.0 mg/kg, plasma AMXT 1501, read-out: t1/2 Median (converted)", "result": 13.4, "unit": "h"}, {"measurement": "AUC(0-t)", "setting": "16 mg/kg, single PO dose 16.0 mg/kg, t=24 hours, plasma AMXT 1501, read-out: AUC0-t Mean", "result": 6580, "unit": "ng·h/mL"}, {"measurement": "AUC(0-t)", "setting": "16 mg/kg, single PO dose 16.0 mg/kg, t=24 hours, plasma AMXT 1501, read-out: AUC0-t Median", "result": 6370, "unit": "ng·h/mL"}, {"measurement": "Cmax Max.", "setting": "[1]", "result": 349, "unit": "ng/mL"}, {"measurement": "Cmax Min.", "setting": "[1]", "result": 201, "unit": "ng/mL"}, {"measurement": "t1/2 Max.", "setting": "[2]", "result": 16.2, "unit": "h"}, {"measurement": "t1/2 Min.", "setting": "[2]", "result": 12.4, "unit": "h"}, {"measurement": "AUC0-t Max.", "setting": "[3]", "result": 8640, "unit": "ng·h/mL"}, {"measurement": "AUC0-t Min.", "setting": "[3]", "result": 4710, "unit": "ng·h/mL"}, {"measurement": "inter-animal consistency of plasma AMXT 1501 levels", "setting": "single oral delivery, FIGS. 5A-5D", "result": "much more consistent inter-animal blood levels"}]}]}
